From patent US5281598A, “Piperazine derivatives” (Akzo N.V., priority 1992, dated 1994)

Legend:
sigma receptor [1] = conditions: in words; disclosed in WO 91/09594; cited from earlier work
α1 adrenoceptor [2] = experiment: α1 adrenoceptor activity of the prior art compounds (statement in background); conditions: in words
sigma receptor [3] = experiment: sigma receptor binding, 1,3-di-o-tolylguanidine (DTG) binding; conditions: 1,3-di-o-tolylguanidine binding
Method: (§1) The activities are expressed as pKi values (-log Ki values; Ki being the binding constant). The sigma receptor binding was assessed by the 1,3-di-o-tolylguanidine (DTG) binding as described by Fox et al., Eur. J. Pharmacol., 193, 139-143, 1991. The α1 adrenoceptor affinity was assessed by the prazosin (PRA) binding as described by de Boer et al., Arzneim. Forsch., 40, 550-554, 1990.

α1 adrenoceptor [4] = experiment: α1 adrenoceptor affinity, prazosin (PRA) binding
Method: as §1

[5] = in words; literature (Tamminga and Gerlach); cited from earlier work

| DTG pKi (-log Ki) (sigma receptor [3]) | PRA pKi (-log Ki) (α1 adrenoceptor [4]) | Compound | sigma receptor affinity (sigma receptor [1]) | α1 adrenoceptor activity (α1 adrenoceptor [2]) | induction of orthostatic hypotension [5] |
| --- | --- | --- | --- | --- | --- |
| – | – | CN1CCN(C2=Nc3cc(Cl)ccc3Nc3ccccc32)CC1 [clozapine] | – | – | induction of orthostatic hypotension |
| 8.2 | 8.7 | c1ccc(CCCN2CCN(c3ccccc3)CC2)cc1 [Compound 46 of WO 91/09594] | displaying sigma receptor affinity | possess α1 adrenoceptor activity | – |
| 8.7 | 5.7 | Cl.Cl.c1ccc(CCCN2CCN(CCOCc3ccccc3)CC2)cc1 [Compound of Example 1, 1-[2-(phenylmethoxy)ethyl]-4-(3-phenylpropyl)piperazine dihydrochloride] | – | – | – |

| Compound | DTG pKi (-log Ki) (sigma receptor [3]) | PRA pKi (-log Ki) (α1 adrenoceptor [4]) | sigma receptor affinity (sigma receptor [1]) | α1 adrenoceptor activity (α1 adrenoceptor [2]) | induction of orthostatic hypotension [5] |
| --- | --- | --- | --- | --- | --- |
| c1ccc(CCCCN2CCN(Cc3ccccc3)CC2)cc1 [Compound 79 of WO 91/09594] | 8.6 | 7.4 | displaying sigma receptor affinity | possess α1 adrenoceptor activity | – |
